The values that follow come from patent US11827664B2, “Biaryl amides with modified sugar groups for treatment of diseases associated with heat shock protein pathway” (REATA PHARMACEUTICALS, INC., priority 2018, dated 2023).

A short description of data set [1]: Stability in acidic medium, monitored by HPLC. Particulars: 0.1 N aq. HCl/MeOH (2/1 v/v), room temperature. The format is physicochemical. How it is done:
A sample of a test compound (1.2 mg) was dissolved in 0.1 N aq. HCl/MeOH (2/1 v/v, 4 mL) at room temperature. The degradation of the test compound was monitored by HPLC. The percentage of the test compound remaining was calculated using the peak area % in HPLC.

The subject of data set [2] is rat streptozotocin induced diabetes model for painful diabetic neuropathy. The data set is described as follows: Streptozotocin-induced rat model of painful diabetic neuropathy, Von Frey measurement for allodynia. The format is in vivo. Particulars: STZ 60 mg/kg IV, oral QD dosing started on Day 10. How it is done:
A streptozotocin-induced rat model was used to test the effectiveness of KU-596 (T0) and several of the instant compounds in a model of painful diabetic neuropathy. The study rats were allowed to accliminate to the Von Frey apparatus for one day prior to the initial Von Frey measurement. A baseline Von Frey measurement, a body weight measurement, and blood glucose level measurements were conducted one day before the intravenous administration of streptozotocin to induce diabetes. […] Each of the animals in a treatment group was dosed with either the vehicle or a therapeutic agent orally. Treatment was continued until euthanasia approximately one to two weeks later.
Streptozotocin was injected into rats to induce diabetes after a baseline Von Frey measurement for allodynia was collected. Oral administration of each test drug (Compound T0 (KU-596), FIG. 1A; Compound T2, FIG. 1B, and Compound T1, FIG. 1C) was started on Day 10 after another Von Frey measurement.

Another data set has as its system diabetic mice. Particulars: cited from earlier work.
The next data set relates to neurons. Particulars: neurons; cited from earlier work.
Where [3] appears, read: 22 hours (footnote *, printed in the 24 h line).

As to `CO[C@@H]1[C@@H](O)[C@@H](O)[C@@H](Oc2ccc(CCNC(C)=O)c(-c3cccc(F)c3)c2)OC1(C)C` [T20], the “percentage of test compound remaining (HPLC peak area %)” value in data set [1] (0 h) came out at 100.0%; in data set [1] (4 h), 97.7%; in data set [1] (8 h), 94.8%; in data set [1] (12 h) it was 91.9%; in data set [1] (16 h), 89.2%; in data set [1] (20 h), 86.8%. For the same compound, in data set [1] (24 h), the “percentage of test compound remaining (HPLC peak area %)” value was 84.4%.

For `CC(=O)NCCc1ccc(O[C@@H]2OC(C)(C)[C@H](OCc3ccccc3)[C@@H](O)[C@H]2O)cc1-c1cccc(F)c1` [T7], the “percentage of test compound remaining (HPLC peak area %)” value is given as 100.0% in data set [1] (0 h); 93.3% in data set [1] (4 h); 85.6% in data set [1] (8 h); 78.8% in data set [1] (12 h); 71.5% in data set [1] (16 h); 65.5% in data set [1] (20 h). In addition, the “percentage of test compound remaining (HPLC peak area %)” value in data set [1] (24 h) is 61.7%.

Take `CC(=O)NCCc1ccc(O[C@@H]2O[C@@H](CO)[C@H](O)[C@@H](O)[C@H]2O)cc1-c1cccc(F)c1` [T60]: the “percentage of test compound remaining (HPLC peak area %)” value in data set [1] (0 h) was found to be 100.0%; in data set [1] (4 h) it was 97.6%; in data set [1] (8 h), 97.6%; in data set [1] (12 h) it was 97.5%; in data set [1] (16 h) it was 97.2%; in data set [1] (20 h) it was 98.0%. Also, the “percentage of test compound remaining (HPLC peak area %)” value in data set [1] (24 h) came to 97.4%.

Turning to `CNC(=O)CCc1ccc(O[C@@H]2O[C@@H](C)[C@H](OC)[C@@H](O)[C@H]2O)cc1-c1cccc(F)c1` [T11], the “percentage of test compound remaining (HPLC peak area %)” value in data set [1] (0 h) worked out at 100.0%; in data set [1] (4 h), 100.2%; in data set [1] (8 h) it was 100.3%; in data set [1] (12 h) it was 100.6%; in data set [1] (16 h) it was 100.9%; in data set [1] (20 h), 101.4%. Besides, the “percentage of test compound remaining (HPLC peak area %)” value in data set [1] (24 h) is listed as 102.1%.

On to `CNC(=O)CCc1ccc(O[C@@H]2OC(C)(C)[C@H](OC)[C@@H](O)[C@H]2O)cc1-c1cccc(F)c1` [T57], for which the “percentage of test compound remaining (HPLC peak area %)” value came to 100.0% in data set [1] (0 h); 97.9% in data set [1] (4 h); 93.4% in data set [1] (8 h); 90.3% in data set [1] (12 h); 86.4% in data set [1] (16 h); 82.5% in data set [1] (20 h). The “percentage of test compound remaining (HPLC peak area %)” value in data set [1] (24 h) is recorded as 79.3%.

With `CO[C@@H]1[C@@H](O)[C@@H](O)[C@H](Oc2ccc(C(F)(F)CNC(C)=O)c(-c3cccc(F)c3)c2)OC1(C)C` [T12], the “percentage of test compound remaining (HPLC peak area %)” value in data set [1] (0 h) is given as 100.0%; in data set [1] (4 h), 97.2%; in data set [1] (8 h), 95.5%; in data set [1] (12 h), 93.7%; in data set [1] (16 h) it was 92.3%; in data set [1] (20 h) it was 90.6%. The “percentage of test compound remaining (HPLC peak area %)” value in data set [1] (setting [3]) is reported as 89.9* %.

As for `CC(=O)NCCc1ccc(O[C@@H]2OC(C)(C)[C@H](O)[C@@H](O)[C@H]2O)cc1-c1cccc(F)c1` [T3], the “percentage of test compound remaining (HPLC peak area %)” value was found to be 100.0% in data set [1] (0 h); 98.1% in data set [1] (4 h); 96.1% in data set [1] (8 h); 94.1% in data set [1] (12 h); 92.2% in data set [1] (16 h); 90.2% in data set [1] (20 h). The “percentage of test compound remaining (HPLC peak area %)” value in data set [1] (24 h) was 88.3%.

Take `CO[C@@H]1[C@@H](O)[C@@H](O)[C@H](Oc2ccc(CCNC(C)=O)c(-c3cccc(F)c3)c2)O[C@H]1C` [T2]: in data set [2], the “activity in model of painful diabetic neuropathy relative to T0 (KU-596), Von Frey measurement” value is given as “comparable to slightly better activity”. The “percentage of test compound remaining (HPLC peak area %)” value is 100.0% in data set [1] (0 h); 99.9% in data set [1] (4 h); 99.5% in data set [1] (8 h); 99.8% in data set [1] (12 h); 100.2% in data set [1] (16 h); 99.9% in data set [1] (20 h). Also, the “percentage of test compound remaining (HPLC peak area %)” value in data set [1] (setting [3]) was 100.2* %.

As for `CC(=O)NCCc1ccc(O[C@@H]2O[C@@H](C)[C@H](O)[C@@H](O)[C@H]2O)cc1-c1cccc(F)c1` [T1], the “activity in model of painful diabetic neuropathy relative to T0 (KU-596), Von Frey measurement” value in data set [2] is listed as “comparable to slightly better activity”. Moreover, the “percentage of test compound remaining (HPLC peak area %)” value in data set [1] (0 h) turned out to be 100.0%; in data set [1] (4 h), 101.1%; in data set [1] (8 h) it was 100.1%; in data set [1] (12 h), 100.5%; in data set [1] (16 h) it was 100.4%; in data set [1] (20 h), 100.3%. Besides, in data set [1] (24 h), the “percentage of test compound remaining (HPLC peak area %)” value stood at 100.4%.

In the case of `CO[C@@H]1[C@@H](O)[C@@H](O)[C@H](Oc2ccc3cc(NC(C)=O)c(=O)oc3c2C)OC1(C)C` [KU-32], in the data set with diabetic mice, the “effect on symptoms of DPN / neuropathy in diabetic mice” value was “significant activity in reversing established symptoms of DPN in diabetic mice”. In addition, the “effect on mitochondrial function / bioenergetics” value in the data set with neurons is “improve mitochondrial bioenergetics”.

Turning to `CC(=O)NCCc1ccc(O[C@@H]2O[C@@H](C)[C@@H](O)[C@@H](O)[C@@H]2O)cc1-c1cccc(F)c1` [T15], the “percentage of test compound remaining (HPLC peak area %)” value in data set [1] (0 h) was found to be 100.0%; in data set [1] (4 h) it was 99.9%; in data set [1] (8 h) it was 99.0%; in data set [1] (12 h), 98.5%; in data set [1] (16 h), 97.9%; in data set [1] (20 h) it was 97.0%. Moreover, the “percentage of test compound remaining (HPLC peak area %)” value in data set [1] (24 h) amounted to 96.5%.

In the case of `CO[C@@H]1[C@@H](O)[C@@H](O)[C@H](Oc2ccc(C(F)(F)CNC(C)=O)c(-c3cccc(F)c3)c2)O[C@H]1C` [T13], the “percentage of test compound remaining (HPLC peak area %)” value in data set [1] (0 h) is reported as 100.0%; in data set [1] (4 h) it was 99.3%; in data set [1] (8 h), 99.7%; in data set [1] (12 h), 100.3%; in data set [1] (16 h), 99.5%; in data set [1] (20 h), 99.7%. Also, in data set [1] (24 h), the “percentage of test compound remaining (HPLC peak area %)” value is reported as 99.3%.

Take `CC(=O)NCCc1ccc(O[C@H]2O[C@H](C)[C@@H](O)[C@H](O)[C@@H]2O)cc1-c1cccc(F)c1` [T54]: the “percentage of test compound remaining (HPLC peak area %)” value in data set [1] (0 h) is 100.0%; in data set [1] (4 h) it was 100.4%; in data set [1] (8 h), 100.2%; in data set [1] (12 h), 101.0%; in data set [1] (16 h), 101.1%; in data set [1] (20 h) it was 101.3%. Further, the “percentage of test compound remaining (HPLC peak area %)” value in data set [1] (24 h) is 101.2%.

As for `CO[C@@H]1[C@@H](O)[C@@H](O)[C@H](Oc2ccc(CCNC(C)=O)c(-c3cccc(F)c3)c2)OC1(C)C` [T0, reference compound], the “percentage of test compound remaining (HPLC peak area %)” value in data set [1] (0 h) is on record as 100.0%; in data set [1] (4 h), 96.7 ± 1.4%; in data set [1] (8 h), 93.4 ± 1.7%; in data set [1] (12 h), 90.5 ± 2.3%; in data set [1] (16 h), 87.3 ± 2.9%; in data set [1] (20 h), 83.9 ± 4.1%. In addition, the “percentage of test compound remaining (HPLC peak area %)” value in data set [1] (24 h) amounted to 81.8 ± 4.2%.

On to `CC(=O)NCCc1ccc(O[C@@H]2OC(C)(C)[C@H](OC(F)F)[C@@H](O)[C@H]2O)cc1-c1cccc(F)c1` [T6], for which the “percentage of test compound remaining (HPLC peak area %)” value in data set [1] (0 h) came out at 100.0%; in data set [1] (4 h), 99.1%; in data set [1] (8 h) it was 99.0%; in data set [1] (12 h), 97.6%; in data set [1] (16 h) it was 96.6%; in data set [1] (20 h), 96.0%. In addition, the “percentage of test compound remaining (HPLC peak area %)” value in data set [1] (24 h) was 95.7%.
